In ChEMBL document CHEMBL1134267 (Bioorg Med Chem Lett, 2001) one finds Ki data, which are given here for 8 molecules.

As usually defined, the Ki is a dissociation constant, usually derived from enzyme kinetics or from competition with a known ligand.

Experiment [1] concerns the target Neuronal acetylcholine receptor subunit alpha-7 (Rattus norvegicus, UniProt Q05941). The experiment in a line: Affinity for alpha-7 neuronal nicotinic acetylcholine receptor subtype determined by inhibition of [3H]-MLA binding to rat brain membranes. The class given is cell membranes, Membrane.
In experiment [2] the target is Neuronal acetylcholine receptor alpha4/beta2 (Rattus norvegicus). In words: Affinity for Nicotinic acetylcholine receptor alpha4-beta2 tested by analogue-induced inhibition of [3H]NIC binding to rat striatal membranes.

The structures appear in SMILES notation.

Chain of Neuronal acetylcholine receptor subunit alpha-7 (Q05941 whole entry): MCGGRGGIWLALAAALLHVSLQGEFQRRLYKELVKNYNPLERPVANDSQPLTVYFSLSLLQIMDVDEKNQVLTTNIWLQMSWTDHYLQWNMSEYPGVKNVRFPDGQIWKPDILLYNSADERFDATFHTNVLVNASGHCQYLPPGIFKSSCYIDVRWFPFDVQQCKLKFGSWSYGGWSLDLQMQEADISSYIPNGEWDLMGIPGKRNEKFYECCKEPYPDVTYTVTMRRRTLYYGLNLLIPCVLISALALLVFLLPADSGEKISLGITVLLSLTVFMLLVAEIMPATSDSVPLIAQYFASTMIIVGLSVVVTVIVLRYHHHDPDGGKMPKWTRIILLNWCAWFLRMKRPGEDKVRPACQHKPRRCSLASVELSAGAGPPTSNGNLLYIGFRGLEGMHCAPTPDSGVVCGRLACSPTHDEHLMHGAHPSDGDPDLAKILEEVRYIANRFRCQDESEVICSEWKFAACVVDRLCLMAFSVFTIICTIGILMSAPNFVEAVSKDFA

With `c1cc2c(cn1)[C@@H]1NCC[C@@H]1CC2`, the affinity in experiment [1], expressed as Ki, was 20200 nM.

As to `CN1CC[C@@H]2CCc3ccncc3[C@@H]21`, the Ki in experiment [1] came out at 590 nM; in experiment [2], 400 nM. For the molecule `c1cncc([C@@H]2CCCN2)c1` [NORNICOTINE], in experiment [1], the affinity corresponds to a Ki of 1340 nM. Take `c1cnc2c(c1)[C@H]1NCC[C@H]1CC2`: the Ki in experiment [1] was over 100000 nM; in experiment [2] it was 10500 nM.

As to `CN1CCC[C@H]1c1ccc[n+]([BH2-]C#N)c1`, the Ki in experiment [1] stood at 41 nM; in experiment [2], 15200 nM. In the same order, the values of `CN1CC[C@H]2CCc3ncccc3[C@H]21` are over 100000 nM and 12200 nM. In the same order, the values of `CN1CC[C@@H]2CCc3cc[n+]([BH2-]C#N)cc3[C@@H]21` are 600 nM and 2400 nM. In experiment [1], `CN1CC[C@H]2CCc3c(ccc[n+]3[BH2-]C#N)[C@H]21` registered a Ki of over 100000 nM.
